Measured values as given in ChEMBL document CHEMBL3991601, “The target landscape of clinical kinase drugs” (Science, 2017).
Active and inactive are the calls of the source.

Columns and labels:
[1] = molecular target: T1, Tyrosine-protein kinase Tec (Homo sapiens, UniProt P42680)
T1 sequence (P42680 whole entry): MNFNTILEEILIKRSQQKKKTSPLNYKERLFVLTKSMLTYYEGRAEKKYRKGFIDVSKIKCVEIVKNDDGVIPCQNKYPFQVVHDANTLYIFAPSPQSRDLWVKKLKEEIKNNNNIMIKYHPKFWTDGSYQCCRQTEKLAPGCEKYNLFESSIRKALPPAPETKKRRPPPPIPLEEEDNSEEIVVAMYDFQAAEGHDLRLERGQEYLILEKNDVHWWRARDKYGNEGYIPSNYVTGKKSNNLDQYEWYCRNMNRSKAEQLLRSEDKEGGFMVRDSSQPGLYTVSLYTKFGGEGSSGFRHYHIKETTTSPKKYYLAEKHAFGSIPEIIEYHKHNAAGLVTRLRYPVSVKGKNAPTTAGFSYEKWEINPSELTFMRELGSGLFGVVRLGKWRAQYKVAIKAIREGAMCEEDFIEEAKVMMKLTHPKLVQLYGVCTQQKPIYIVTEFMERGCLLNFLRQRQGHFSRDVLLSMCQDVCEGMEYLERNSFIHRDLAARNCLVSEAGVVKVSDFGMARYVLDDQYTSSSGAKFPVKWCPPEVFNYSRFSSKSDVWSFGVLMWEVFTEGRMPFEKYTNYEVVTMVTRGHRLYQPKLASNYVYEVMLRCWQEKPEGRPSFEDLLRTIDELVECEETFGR

[2] = molecular target: T2, Serine/threonine-protein kinase ULK1 (Homo sapiens, UniProt O75385)
T2 sequence (O75385 whole entry): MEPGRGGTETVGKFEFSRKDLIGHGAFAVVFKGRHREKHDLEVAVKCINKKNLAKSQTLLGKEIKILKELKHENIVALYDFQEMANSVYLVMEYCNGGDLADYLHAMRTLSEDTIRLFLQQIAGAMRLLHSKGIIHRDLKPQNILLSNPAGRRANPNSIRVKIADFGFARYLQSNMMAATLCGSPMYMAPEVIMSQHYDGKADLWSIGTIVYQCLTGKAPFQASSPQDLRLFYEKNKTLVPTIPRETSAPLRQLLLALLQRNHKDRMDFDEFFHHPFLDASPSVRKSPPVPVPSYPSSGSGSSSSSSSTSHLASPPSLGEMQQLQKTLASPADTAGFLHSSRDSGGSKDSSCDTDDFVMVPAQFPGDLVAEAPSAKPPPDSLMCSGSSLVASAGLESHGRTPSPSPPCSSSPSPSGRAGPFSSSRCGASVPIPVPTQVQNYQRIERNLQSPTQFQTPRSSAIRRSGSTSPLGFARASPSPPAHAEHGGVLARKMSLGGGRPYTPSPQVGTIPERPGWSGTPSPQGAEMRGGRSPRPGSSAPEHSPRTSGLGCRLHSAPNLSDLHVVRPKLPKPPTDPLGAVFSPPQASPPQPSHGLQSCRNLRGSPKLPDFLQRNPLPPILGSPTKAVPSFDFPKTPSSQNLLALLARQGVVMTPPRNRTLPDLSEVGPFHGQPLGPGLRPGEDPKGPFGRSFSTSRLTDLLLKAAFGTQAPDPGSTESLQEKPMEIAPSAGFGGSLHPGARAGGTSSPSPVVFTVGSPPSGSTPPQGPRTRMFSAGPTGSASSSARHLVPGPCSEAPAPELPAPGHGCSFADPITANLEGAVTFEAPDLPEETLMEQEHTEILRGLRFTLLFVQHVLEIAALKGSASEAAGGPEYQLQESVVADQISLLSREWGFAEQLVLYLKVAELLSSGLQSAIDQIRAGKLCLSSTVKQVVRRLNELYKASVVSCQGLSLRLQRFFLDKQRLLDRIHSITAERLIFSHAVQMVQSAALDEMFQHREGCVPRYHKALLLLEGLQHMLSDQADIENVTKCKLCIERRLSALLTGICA

[3] = molecular target: NADH dehydrogenase [ubiquinone] 1 alpha subcomplex subunit 13 (Homo sapiens, UniProt Q9P0J0)
[4] = molecular target: Structural maintenance of chromosomes protein 2 (Homo sapiens, UniProt O95347)
[5] = molecular target: T3, Ephrin type-B receptor 3 (Homo sapiens, UniProt P54753)
T3 sequence (P54753 whole entry): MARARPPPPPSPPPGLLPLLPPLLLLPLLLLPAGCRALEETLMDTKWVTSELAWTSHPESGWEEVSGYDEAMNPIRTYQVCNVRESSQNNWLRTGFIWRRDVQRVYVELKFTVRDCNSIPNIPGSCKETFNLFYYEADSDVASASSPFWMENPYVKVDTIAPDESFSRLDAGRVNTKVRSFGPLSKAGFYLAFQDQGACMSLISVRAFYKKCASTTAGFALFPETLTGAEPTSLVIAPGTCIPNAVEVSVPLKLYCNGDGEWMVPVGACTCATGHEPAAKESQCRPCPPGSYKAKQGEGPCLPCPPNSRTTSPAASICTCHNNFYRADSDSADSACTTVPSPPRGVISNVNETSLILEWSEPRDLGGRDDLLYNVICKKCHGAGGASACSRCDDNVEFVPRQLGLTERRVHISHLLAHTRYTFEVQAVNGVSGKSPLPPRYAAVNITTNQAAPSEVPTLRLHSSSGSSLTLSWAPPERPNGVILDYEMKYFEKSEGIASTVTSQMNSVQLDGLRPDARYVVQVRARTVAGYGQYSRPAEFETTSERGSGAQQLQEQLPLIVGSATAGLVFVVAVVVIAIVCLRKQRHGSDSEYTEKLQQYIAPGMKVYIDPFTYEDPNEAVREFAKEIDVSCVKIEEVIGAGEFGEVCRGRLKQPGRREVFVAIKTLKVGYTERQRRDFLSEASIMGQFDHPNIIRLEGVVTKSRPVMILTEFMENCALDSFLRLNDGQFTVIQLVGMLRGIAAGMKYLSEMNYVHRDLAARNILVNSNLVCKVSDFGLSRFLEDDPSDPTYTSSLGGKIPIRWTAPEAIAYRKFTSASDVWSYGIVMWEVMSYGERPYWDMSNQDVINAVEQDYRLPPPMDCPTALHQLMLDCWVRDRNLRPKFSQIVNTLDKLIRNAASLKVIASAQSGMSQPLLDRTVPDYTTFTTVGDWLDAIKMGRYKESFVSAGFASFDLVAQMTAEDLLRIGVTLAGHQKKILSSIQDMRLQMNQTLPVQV
Note: in the data inactive means no Kd found up to 30 µM.

Sequence of Structural maintenance of chromosomes protein 2 (O95347 whole entry): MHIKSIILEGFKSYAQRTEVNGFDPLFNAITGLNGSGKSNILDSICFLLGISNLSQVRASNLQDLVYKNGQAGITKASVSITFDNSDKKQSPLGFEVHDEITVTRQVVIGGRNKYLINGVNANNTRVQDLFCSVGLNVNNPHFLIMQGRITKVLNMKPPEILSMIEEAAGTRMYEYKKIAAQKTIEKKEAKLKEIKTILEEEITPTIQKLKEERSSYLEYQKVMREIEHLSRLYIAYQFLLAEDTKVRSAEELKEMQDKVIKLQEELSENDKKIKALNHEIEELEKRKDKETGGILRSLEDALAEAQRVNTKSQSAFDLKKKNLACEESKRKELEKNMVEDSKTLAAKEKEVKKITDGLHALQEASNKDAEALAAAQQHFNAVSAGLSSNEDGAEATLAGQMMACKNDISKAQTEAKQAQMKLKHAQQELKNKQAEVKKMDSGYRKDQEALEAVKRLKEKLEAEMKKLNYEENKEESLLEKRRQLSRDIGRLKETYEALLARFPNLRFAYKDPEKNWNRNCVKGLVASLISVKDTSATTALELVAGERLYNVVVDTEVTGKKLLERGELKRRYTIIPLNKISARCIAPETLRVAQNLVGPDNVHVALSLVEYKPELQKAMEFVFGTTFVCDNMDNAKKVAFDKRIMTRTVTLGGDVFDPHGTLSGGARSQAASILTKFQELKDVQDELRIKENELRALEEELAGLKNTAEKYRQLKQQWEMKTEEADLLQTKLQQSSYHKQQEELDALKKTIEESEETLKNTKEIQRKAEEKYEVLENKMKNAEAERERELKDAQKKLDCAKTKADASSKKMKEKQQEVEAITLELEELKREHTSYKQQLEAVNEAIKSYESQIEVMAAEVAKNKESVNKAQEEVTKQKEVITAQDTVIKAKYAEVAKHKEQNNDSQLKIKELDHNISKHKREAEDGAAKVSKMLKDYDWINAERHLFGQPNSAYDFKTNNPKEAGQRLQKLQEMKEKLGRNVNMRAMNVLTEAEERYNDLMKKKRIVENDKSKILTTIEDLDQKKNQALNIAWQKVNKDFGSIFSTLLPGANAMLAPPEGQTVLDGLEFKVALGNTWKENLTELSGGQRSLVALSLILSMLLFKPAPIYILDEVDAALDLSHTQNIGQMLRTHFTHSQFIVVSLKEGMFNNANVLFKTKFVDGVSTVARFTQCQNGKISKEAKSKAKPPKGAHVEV
Sequence of NADH dehydrogenase [ubiquinone] 1 alpha subcomplex subunit 13 (Q9P0J0 whole entry, one chain of several): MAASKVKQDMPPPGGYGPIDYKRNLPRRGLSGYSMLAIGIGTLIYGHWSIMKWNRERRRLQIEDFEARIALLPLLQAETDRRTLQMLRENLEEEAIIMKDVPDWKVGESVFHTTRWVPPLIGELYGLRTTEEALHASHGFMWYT

Structure (SMILES) | Kd [1] | Kd [2] | Kd [3] | Kd [4] | Kd [5]
C[C@@H](Oc1cc(C(=O)Nc2ccc(C(=O)N3CCN(C)CC3)cc2)nnc1N)c1c(Cl)ccc(F)c1Cl | > 30 µM (inactive) | > 30 µM (inactive) | > 30 µM (inactive) | > 30 µM (inactive) | > 30 µM (inactive)
C[C@H]1CNCCCN1S(=O)(=O)c1cccc2cncc(F)c12 | > 30 µM (inactive) | > 30 µM (inactive) | > 30 µM (inactive) | > 30 µM (inactive) | > 30 µM (inactive)
CC(=O)c1cnc2ccc(-c3cc(Cl)c(O)c(Cl)c3)nc2c1N[C@H]1CC[C@H](CN(C)C)CC1 | > 30 µM (inactive) | > 30 µM (inactive) | > 30 µM (inactive) | > 30 µM (inactive) | > 30 µM (inactive)
CCNC(=O)C#Cc1ccc2c(c1)NC(=O)/C2=C(\Nc1ccc(CN(C)C)cc1)c1ccccc1 | 0.885 µM (active) | > 30 µM (inactive) | > 30 µM (inactive) | > 30 µM (inactive) | > 30 µM (inactive)
C=CC(=O)N1CCC[C@H](n2c(=O)n(-c3ccc(Oc4ccccc4)cc3)c3c(N)ncnc32)C1 | 0.006 µM | > 30 µM (inactive) | > 30 µM (inactive) | > 30 µM (inactive) | > 30 µM (inactive)
Cc1nc2cc(-c3nn(C(C)C)c4ncnc(N)c34)ccc2o1 | > 30 µM (inactive) | > 30 µM (inactive) | > 30 µM (inactive) | > 30 µM (inactive) | > 30 µM (inactive)
COCc1c(-c2ccc(NC(=O)Nc3cc(C(F)(F)F)ccc3F)c(F)c2)c2c(N)ncnn2c1CN1CCOCC1 | > 30 µM (inactive) | > 30 µM (inactive) | > 30 µM (inactive) | > 30 µM (inactive) | > 30 µM (inactive)
Nc1ncnc2c1c(-c1cccc(OCc3ccccc3)c1)cn2[C@H]1C[C@@H](CN2CCC2)C1 [AEW-541] | > 30 µM (inactive) | > 30 µM (inactive) | > 30 µM (inactive) | > 30 µM (inactive) | > 30 µM (inactive)
COc1cc(Nc2ncc3c(n2)-c2ccc(Cl)cc2C(c2c(F)cccc2OC)=NC3)ccc1C(=O)O [ALISERTIB] | > 30 µM (inactive) | > 30 µM (inactive) | 3.92 µM | > 30 µM (inactive) | 
Cc1nc(NC(=O)N2CCC[C@H]2C(N)=O)sc1-c1ccnc(C(C)(C)C(F)(F)F)c1 [ALPELISIB] | > 30 µM (inactive) | > 30 µM (inactive) |  | > 30 µM (inactive) | > 30 µM (inactive)
Cc1csc(-c2nnc(Nc3ccc(Oc4ncccc4-c4ccnc(N)n4)cc3)c3ccccc23)c1 [AMG-900] | > 30 µM (inactive) | 0.19 µM (active) |  | > 30 µM (inactive) | > 30 µM (inactive)
O=C(Nc1c[nH]nc1-c1nc2cc(CN3CCOCC3)ccc2[nH]1)NC1CC1 [AT-9283] |  | > 30 µM (inactive) | > 30 µM (inactive) | > 30 µM (inactive) | > 30 µM (inactive)
C=CC(=O)Nc1cc2c(Nc3ccc(F)c(Cl)c3)ncnc2cc1C#CC(C)(C)N1CCN(C)CC1 [AV-412 FREE BASE] | 0.422 µM (active) | > 30 µM (inactive) | > 30 µM (inactive) | > 30 µM (inactive) | > 30 µM (inactive)
CNC(=O)c1ccccc1Sc1ccc2c(/C=C/c3ccccn3)n[nH]c2c1 [AXITINIB] |  |  | > 30 µM (inactive) | > 30 µM (inactive) | 
COc1cc([C@@H]2c3cc4c(cc3[C@H](O)[C@H]3COC(=O)[C@@H]23)OCO4)cc(OC)c1OC [AXL-1717] | > 30 µM (inactive) |  | > 30 µM (inactive) | > 30 µM (inactive) | > 30 µM (inactive)
NC(=O)Nc1cc(-c2cccc(F)c2)sc1C(=O)N[C@H]1CCCNC1 [AZD-7762] | 2.61 µM (active) | 0.115 µM (active) | > 30 µM (inactive) | > 30 µM (inactive) | > 30 µM (inactive)
Cn1cc(C2=C(c3cn(C4CCN(Cc5ccccn5)CC4)c4ccccc34)C(=O)NC2=O)c2ccccc21 [ENZASTAURIN] |  |  | > 30 µM (inactive) | > 30 µM (inactive) | 
C[C@@H](Oc1cc(-n2cnc3ccc(CN4CCN(C)CC4)cc32)sc1C(N)=O)c1ccccc1C(F)(F)F [GSK-461364] |  |  | > 30 µM (inactive) | > 30 µM (inactive) | 
CNC(=O)c1nn(C)c2c1C(C)(C)Cc1cnc(Nc3ccc(N4CCN(C)CC4)cc3)nc1-2 [MILCICLIB] | > 30 µM (inactive) | 1.75 µM (active) | > 30 µM (inactive) | > 30 µM (inactive) | 
NC(=O)c1c(OCc2c(F)cc(Br)cc2F)nsc1NC(=O)NCCCCN1CCCC1 [OSI-632] | > 30 µM (inactive) |  | > 30 µM (inactive) | > 30 µM (inactive) | > 30 µM (inactive)
CC(=O)NCC(=O)N1[C@@H]2CC[C@H]1c1ccc(Nc3ncc(C(F)(F)F)c(NC4CCC4)n3)cc12 [PF-03814735] | 2.32 µM (active) | 0.028 µM (active) |  | > 30 µM (inactive) | > 30 µM (inactive)
O=C(NOCCO)c1cc(CN2OCCCC2=O)c(F)c(F)c1Nc1ccc(I)cc1F [RO-4987655] |  |  | > 30 µM (inactive) | > 30 µM (inactive) | 
N#CC[C@H](C1CCCC1)n1cc(-c2ncnc3[nH]ccc23)cn1 [RUXOLITINIB] |  |  | > 30 µM (inactive) | > 30 µM (inactive) | 
CO[C@H]1C[C@@H]2CC[C@@H](C)[C@@](O)(O2)C(=O)C(=O)N2CCCC[C@H]2C(=O)O[C@H]([C@H](C)C[C@@H]2CC[C@@H](O)[C@H](OC)C2)CC(=O)[C@H](C)/C=C(\C)[C@@H](O)[C@@H](OC)C(=O)[C@H](C)C[C@H](C)/C=C/C=C/C=C/1C [SIROLIMUS] | > 30 µM (inactive) | > 30 µM (inactive) |  | > 30 µM (inactive) | > 30 µM (inactive)
CCS(=O)(=O)c1cccc(-c2cc(C(=O)NC3CCN(C)CC3)c(C)c3[nH]c4ncc(C)cc4c23)c1 [TAK-901] | 0.282 µM (active) | > 30 µM (inactive) | > 30 µM (inactive) | > 30 µM (inactive) | 
Cn1ncc(Cl)c1-c1cc(C(=O)N[C@H](CN)Cc2ccc(F)c(F)c2)oc1Cl [UPROSERTIB] | > 30 µM (inactive) | > 30 µM (inactive) |  | > 30 µM (inactive) | > 30 µM (inactive)
